Assay results from ChEMBL document CHEMBL1201862, “PubChem BioAssay data set” (2004).
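Protocol summary: plate cells (96-well), add compound at 5 concentrations, incubate 48 h, interpolate endpoints linearly. GI50 = concentration required for 50% inhibition of growth.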 Calls of active or inactive are those of the source. Rule as the data show it: active = GI50 up to about 1.1 µM and inactive = higher.

Assays:
Test in all cases: NCI anticancer screen, dose series, 48 h
786-0 = tested on: 786-0
A549 = tested on: A549
ACHN = tested on: ACHN
CAKI-1 = tested on: CAKI-1
CCRF-CEM = tested on: CCRF-CEM
COLO 205 = tested on: COLO 205
DLD-1 = tested on: DLD-1
DMS-114 = tested on: DMS-114
DMS-273 = tested on: DMS-273
HCC 2998 = tested on: HCC 2998
HCT-116 = tested on: HCT-116
HL-60 = tested on: HL-60
HOP-18 = tested on: HOP-18
HOP-62 = tested on: HOP-62
HOP-92 = tested on: HOP-92
HT-29 = tested on: HT-29
IGROV-1 = tested on: IGROV-1
K562 = tested on: K562
KM12 = tested on: KM12
LOX IMVI = tested on: LOX IMVI
M14 = tested on: M14
M19-MEL = tested on: M19-MEL
MOLT-4 = tested on: MOLT-4
Malme-3M = tested on: Malme-3M
NCI-H23 = tested on: NCI-H23
NCI-H460 = tested on: NCI-H460
NCI-H522 = tested on: NCI-H522
OVCAR-3 = tested on: OVCAR-3
OVCAR-4 = tested on: OVCAR-4
OVCAR-5 = tested on: OVCAR-5
OVCAR-8 = tested on: OVCAR-8
RXF 393 = tested on: RXF 393
SF-268 = tested on: SF-268
SF-295 = tested on: SF-295
SF-539 = tested on: SF-539
SK-MEL-28 = tested on: SK-MEL-28
SK-MEL-5 = tested on: SK-MEL-5
SN12C = tested on: SN12C
SNB-19 = tested on: SNB-19
SNB-75 = tested on: SNB-75
SNB-78 = tested on: SNB-78
SR = tested on: SR
SW-620 = tested on: SW-620
TK-10 = tested on: TK-10
U-251 = tested on: U-251
UACC-257 = tested on: UACC-257
UACC-62 = tested on: UACC-62
UO-31 = tested on: UO-31
XF498 = tested on: XF498
EKVX = tested on: EKVX
HCT-15 = tested on: HCT-15
KM-20L2 = tested on: KM-20L2
LXFL 529 = tested on: LXFL 529
NCI-H226 = tested on: NCI-H226
RPMI-8226 = tested on: RPMI-8226
SK-MEL-2 = tested on: SK-MEL-2
SK-OV-3 = tested on: SK-OV-3

`CCOC(=O)CCC(=O)C1c2cccc(O)c2C(=O)c2c(O)cccc21` was tested, and the GI50 (786-0) was 1.74 µM (inactive), the GI50 (A549) was 0.61 µM (active) and the GI50 (ACHN) was 1.43 µM (inactive). For the same compound, the GI50 (CAKI-1) was 2.36 µM (inactive), the GI50 (CCRF-CEM) was 1.1 µM (active) and the GI50 (COLO 205) was 2.01 µM (inactive). For the same compound, the GI50 (DLD-1) was 1.69 µM (inactive), the GI50 (DMS-114) was 0.387 µM (active) and the GI50 (DMS-273) was 1.28 µM (inactive). The GI50 (HCC 2998) was 0.537 µM (active), the GI50 (HCT-116) was 1.31 µM (inactive) and the GI50 (HL-60) was 0.223 µM (active). The GI50 (HOP-18) was 1.77 µM (inactive), the GI50 (HOP-62) was 1.73 µM (inactive) and the GI50 (HOP-92) was 1.49 µM (inactive). For the same compound, the GI50 (HT-29) was 2.74 µM (inactive), the GI50 (IGROV-1) was 1.87 µM (inactive) and the GI50 (K562) was 0.37 µM (active). For the same compound, the GI50 (KM12) was 0.652 µM (active), the GI50 (LOX IMVI) was 0.604 µM (active) and the GI50 (M14) was 0.566 µM (active). The GI50 (M19-MEL) was 0.566 µM (active), the GI50 (MOLT-4) was 2.31 µM (inactive) and the GI50 (Malme-3M) was 1.78 µM (inactive). For the same compound, the GI50 (NCI-H23) was 1.37 µM (inactive), the GI50 (NCI-H460) was 0.26 µM (active) and the GI50 (NCI-H522) was 0.408 µM (active). The GI50 (OVCAR-3) was 0.942 µM (active), the GI50 (OVCAR-4) was 0.611 µM (active) and the GI50 (OVCAR-5) was 1.75 µM (inactive). The GI50 (OVCAR-8) was 1.58 µM (inactive), the GI50 (RXF 393) was 0.71 µM (active) and the GI50 (SF-268) was 0.908 µM (active). For the same compound, the GI50 (SF-295) was 0.644 µM (active), the GI50 (SF-539) was 0.411 µM (active) and the GI50 (SK-MEL-28) was 1.33 µM (inactive). For the same compound, the GI50 (SK-MEL-5) was 0.226 µM (active), the GI50 (SN12C) was 1.33 µM (inactive) and the GI50 (SNB-19) was 1.56 µM (inactive). The GI50 (SNB-75) was 0.877 µM (active), the GI50 (SNB-78) was 2.04 µM (inactive) and the GI50 (SR) was 2.24 µM (inactive). The GI50 (SW-620) was 0.6 µM (active), the GI50 (TK-10) was 2.38 µM (inactive) and the GI50 (U-251) was 0.301 µM (active). For the same compound, the GI50 (UACC-257) was 1.69 µM (inactive), the GI50 (UACC-62) was 0.395 µM (active) and the GI50 (UO-31) was 0.356 µM (active). For the same compound, the GI50 (XF498) was 0.236 µM (active).

`COC(=O)/C(C#N)=C1\CCC(OC)N1C` (centres undefined) was tested, and the GI50 (786-0) was > 100 µM (inactive), the GI50 (A549) was > 100 µM (inactive) and the GI50 (ACHN) was > 100 µM (inactive). The GI50 (CAKI-1) was > 100 µM (inactive), the GI50 (CCRF-CEM) was > 100 µM (inactive) and the GI50 (COLO 205) was > 100 µM (inactive). The GI50 (DLD-1) was > 100 µM (inactive), the GI50 (DMS-114) was > 100 µM (inactive) and the GI50 (DMS-273) was > 100 µM (inactive). For the same compound, the GI50 (EKVX) was > 100 µM (inactive), the GI50 (HCC 2998) was > 100 µM (inactive) and the GI50 (HCT-116) was > 100 µM (inactive). For the same compound, the GI50 (HCT-15) was greater than 100 µM, the GI50 (HL-60) was > 100 µM (inactive) and the GI50 (HOP-18) was > 100 µM (inactive). The GI50 (HOP-62) was > 100 µM (inactive), the GI50 (HT-29) was > 100 µM (inactive) and the GI50 (IGROV-1) was > 100 µM (inactive). The GI50 (K562) was > 100 µM (inactive), the GI50 (KM-20L2) was > 100 µM (inactive) and the GI50 (KM12) was > 100 µM (inactive). The GI50 (LOX IMVI) was > 100 µM (inactive), the GI50 (LXFL 529) was > 100 µM (inactive) and the GI50 (M14) was > 100 µM (inactive). The GI50 (M19-MEL) was > 100 µM (inactive), the GI50 (MOLT-4) was > 100 µM (inactive) and the GI50 (Malme-3M) was > 100 µM (inactive). The GI50 (NCI-H226) was > 100 µM (inactive), the GI50 (NCI-H23) was > 100 µM (inactive) and the GI50 (NCI-H460) was > 100 µM (inactive). For the same compound, the GI50 (NCI-H522) was > 100 µM (inactive), the GI50 (OVCAR-3) was > 100 µM (inactive) and the GI50 (OVCAR-4) was > 100 µM (inactive). The GI50 (OVCAR-5) was > 100 µM (inactive), the GI50 (OVCAR-8) was > 100 µM (inactive) and the GI50 (RPMI-8226) was > 100 µM (inactive). For the same compound, the GI50 (RXF 393) was > 100 µM (inactive), the GI50 (SF-268) was > 100 µM (inactive) and the GI50 (SF-295) was > 100 µM (inactive). The GI50 (SF-539) was > 100 µM (inactive), the GI50 (SK-MEL-28) was > 100 µM (inactive) and the GI50 (SK-MEL-2) was > 100 µM (inactive). The GI50 (SK-MEL-5) was > 100 µM (inactive), the GI50 (SK-OV-3) was > 100 µM (inactive) and the GI50 (SN12C) was > 100 µM (inactive). The GI50 (SNB-19) was > 100 µM (inactive), the GI50 (SNB-75) was > 100 µM (inactive) and the GI50 (SNB-78) was > 100 µM (inactive). The GI50 (SW-620) was > 100 µM (inactive), the GI50 (TK-10) was > 100 µM (inactive) and the GI50 (U-251) was > 100 µM (inactive). For the same compound, the GI50 (UACC-257) was > 100 µM (inactive), the GI50 (UACC-62) was > 100 µM (inactive) and the GI50 (UO-31) was > 100 µM (inactive). For the same compound, the GI50 (XF498) was > 100 µM (inactive).
